What was measured:
[1] = molecular target: T1, DC-SIGNR (Homo sapiens, UniProt Q9H2X3); format: binding; settings: data not shown
T1 construct: expressed in transfected cells; host or cells: HEK 293T, transient transfection; cDNA a gift from Dr R. W. Doms

[2] = molecular target: T2, DC-SIGN (Homo sapiens, UniProt Q9NNX6); format: binding; design: expressed in transfected cells; settings: data not shown
T2 sequence (Q9NNX6 1-404): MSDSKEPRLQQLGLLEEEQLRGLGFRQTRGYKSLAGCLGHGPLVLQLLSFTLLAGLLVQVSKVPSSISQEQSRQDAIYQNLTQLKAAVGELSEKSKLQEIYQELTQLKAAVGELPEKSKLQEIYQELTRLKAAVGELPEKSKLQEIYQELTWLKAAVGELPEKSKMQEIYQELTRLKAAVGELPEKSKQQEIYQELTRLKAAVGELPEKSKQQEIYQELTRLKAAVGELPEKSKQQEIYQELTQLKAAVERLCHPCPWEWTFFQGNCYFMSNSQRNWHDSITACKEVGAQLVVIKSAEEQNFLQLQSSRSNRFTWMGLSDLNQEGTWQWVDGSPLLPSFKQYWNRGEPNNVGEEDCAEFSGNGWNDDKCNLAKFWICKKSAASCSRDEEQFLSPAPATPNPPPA

[3] = tested on: CMV; experiment: CMV trans-infection assay: virus-pulsed DC-SIGN+ cells co-cultured with MRC-5 cells; format: cell-based, Human Cytomegalovirus; settings: MD-DC, DC-SIGN+ THP-1 or DC-SIGN+ HeLa cells pre-incubated before pulse with CMV
Description: For trans-infection experiments, cells were incubated with viral suspensions (CMV, VZV or HSV-1, MOI=1) for 2 hr, at 37° C. Thereafter, unbound viral particles were removed by extensive washes and cells were co-cultured with sub-confluent MRC-5 or U373 MG cell monolayers. After 24 to 72 hr, infected MRC-5 or U373-MG cells were fixed, permeabilized and stained with specific mAbs directed against IEA- or EA-CMV (mAbs E13 and 2A2, respectively), VZV (mAb 2013) or HSV (mAb CHA-437) (Argen Biosoft, Varilhes, France). When indicated MD-DC or THP-1 (parental or DC-SIGN^+) cells were incubated with EGTA (5 mM), mannan or anti-DC-SIGN (1B10.2.6 mAb) for 30 minutes at 4° C. prior challenge with infectious preparations. Infection by ADGFP strain was assessed by counting GFP-expressing cells at day 3. For long term infectivity experiments DC-SIGN^+ or parental THP-1 cells were incubated with ADGFP (MOI=1) for 4 hr at 37° C. After extensive washes, infected cells were incubated at 37° C. and an aliquot of these cells was added to a sub-confluent MRC-5 cell culture every 2 days during the assay.
MD-DC, THP-1 or HeLa expressing DC-SIGN were incubated with a mutant CMV strain encoding a GFP (ADGFP) (Borst et al., 2001). […]
The capacity of DC-SIGN to enhance infectiveness of CMV was assessed. […]

[4] = molecular target: T2, DC-SIGN; experiment: HIV-1 gp120 binding competition assay on DC-SIGN+ THP-1 cells; design: expressed in transfected cells; host or cells: THP-1 (gift of Dr. D. R. Littman; Kwon et al., 2002); settings: DC-SIGN+ THP-1 cells pre-treated with competitors (20 μg/ml)
Description: DC-SIGN^+ THP-1 cells were washed two times, resuspended in ice-cold binding buffer (1 mM CaCl2, 2 mM MgCl2 and 0.1% Bovine Serum Albumin in PBS) at 10^6 cells/mL and pre-treated or not for 15 minutes with competitors (20 μg/ml). Thereafter, recombinant biotinylated CXCR4-tropic (MN isolate) HIV-1 gp120 (2 μg/ml; Immunodiagnostics Inc., Woburg, Mass.) was added for 30 minutes at 4° C.
In this assay we pre-incubated DC-SIGN^+ THP-1 cells with purified HIV-1 gp120, CMV gB, HSV-1 gB, VZV gB, HSV-1 gD or VZV gE. Following exposure to each single envelope glycoprotein, cells were incubated with biotinylated HIV-1 gp120, which binding to DC-SIGN^+ THP-1 cells was evidenced by immunostaining and FACS analysis.

[5] = molecular target: T2, DC-SIGN; experiment: Binding of CMV virions to DC-SIGN-expressing cells (flow cytometry, anti-CMV gB mAb); format: cell-based; design: expressed in transfected cells; host or cells: THP-1 (gift of Dr. D. R. Littman; Kwon et al., 2002); settings: pre-incubation of cells with the substance
Description: The capacity of CMV to bind DC-SIGN was investigated. Parental and DC-SIGN^+ THP-1 cells, or immature monocyte-derived DC (MD-DC) were incubated on ice with increasing concentrations of CMV and the presence of cell-bound virions was quantified by flow cytometry using a mAb directed against the CMV gB.

T1 sequence (Q9H2X3 whole entry): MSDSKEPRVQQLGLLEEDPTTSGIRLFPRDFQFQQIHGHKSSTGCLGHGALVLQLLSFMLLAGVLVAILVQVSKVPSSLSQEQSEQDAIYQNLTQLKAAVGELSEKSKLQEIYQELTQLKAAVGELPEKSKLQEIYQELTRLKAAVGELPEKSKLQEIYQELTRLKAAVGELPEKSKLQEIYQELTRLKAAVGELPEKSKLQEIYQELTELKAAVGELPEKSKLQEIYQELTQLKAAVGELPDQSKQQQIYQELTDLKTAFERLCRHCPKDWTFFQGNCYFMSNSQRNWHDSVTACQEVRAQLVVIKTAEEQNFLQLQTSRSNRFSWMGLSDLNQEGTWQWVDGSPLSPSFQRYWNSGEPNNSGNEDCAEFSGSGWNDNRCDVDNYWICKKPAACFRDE

Row | Compound | Binding of HIV-1 gp120 and CMV gB to HEK 293T cells expressing DC-SIGNR [1] | Binding of HIV-1 gp120 and CMV gB to HEK 293T cells expressing DC-SIGN [2] | Trans-infection of MRC-5 cells / transmission of CMV from DC-SIGN+ cells to MRC-5 cells [3] | Binding of biotinylated HIV-1 gp120 on DC-SIGN (competition) [4] | CMV virion attachment to cells [5]
1 | O=C(O)CN(CCOCCOCCN(CC(=O)O)CC(=O)O)CC(=O)O [EGTA] | blocked | blocked | prevented | – | –
2 | mannan | – | – | prevented | competitive effect | Abrogation
